Measurements as given in patent publication US9458137B2, “Substituted indol-5-ol derivatives and their therapeutical applications” (NantBioScience, Inc., priority 2012, dated 2016).

System: AN3 human endometrial carcinoma carcinoma xenograft
Experiment: AN3 endometrial carcinoma xenograft
Type: in vivo, nude mouse
Conditions: AN3 xenograft
Description: This example assesses NTW-3475's anti-tumor activity using a scid mouse xenograft models for leukemias and nude mouse xenograft models of endometrial, pancreatic and thyroid carcinomas. NTW-3475 combination therapy was also studied in murine xenografts.
FIGS. 39-41 depict the results of various concentrations of NTW-3456 on the AN3 nude mouse/xenograft model of endometrial carcinoma.

Cc1cc2c(F)c(Oc3nc(Nc4cc(C5CC5)[nH]n4)cc(N4CCN(C)CC4)n3)cc(F)c2[nH]1 [NTW-3475]
anti-tumor effect: anti-tumor effect
